Laboratory results taken from patent publication US20060222792A1, “Temozolomide storage system” (CHEMAGIS LTD., priority 2006, published 2006).

Legend:
Format in all cases: physicochemical
[1] = Storage stability of temozolomide in type 3 packaging, purity by HPLC (Example 3); details: for Initial purity, % by HPLC: before starting the storage period; for Initial purity, % by HPLC / Purity, % by HPLC after 1 month of storage / Purity, % by HPLC after 2 months of storage / Purity, % by HPLC after 6 month of storage: % area; for Purity, % by HPLC after 1 month of storage / Purity, % by HPLC after 2 months of storage / Purity, % by HPLC after 6 month of storage: warehouse conditions; for Purity, % by HPLC after 6 month of storage: 6 months
Procedure: Analytical measurements of the temozolomide samples were performed using an HPLC system equipped with Phenomenex Synergi™ Fusion-RP C18 column, 250×4.6 mm, and a UV detector operated on 250 nm. Analyses were performed using the following mobile phase, at flow rate of 1.0 ml/minute: Mobile phase: 90% Solution A: 0.02M potassium dihydrogen phosphate buffer (pH 3); 10% Solution B: acetonitrile.
Three different samples of temozolomide were stored at warehouse conditions in a type 3 packaging. A small quantity was taken from each sample after 1, 2 and 6 months and the purity was checked by HPLC and compared to the original HPLC chromatogram of each sample (before starting the storage period). The purity of each sample was obtained as % area by the HPLC chromatogram and compared to the initial purity value (before starting the storage period).

[2] = Colour stability of temozolomide in different drug packaging at warehouse conditions (Example 2)
From the text: Exemplary packaging, which can be used in the storage system of the present invention, can include, e.g., packaging type 1, packaging type 2 and/or packaging type 3. When packaging type 1 is used, the temozolomide is preferably contained (e.g., packed or packaged) in a sealed transparent polymeric bag (e.g., a sealed polyethylene bag). When packaging type 2 is used, the temozolomide is preferably contained (e.g., packed or packaged) in a sealed transparent polymeric bag (e.g., a sealed polyethylene bag), which is inserted into another opaque (e.g., black) polymeric bag (e.g., a black polyethylene bag), which is then sealed effectively to prevent penetration of humidity, oxygen and/or light. When packaging type 3 is used, the temozolomide is preferably contained (e.g., packaged or packed) in a sealed transparent polymeric bag (e.g., a sealed polyethylene bag), which is inserted in an opaque (e.g., black) polymeric bag (e.g., a black polyethylene bag), which is then sealed and, in turn, put inside a sealed laminated aluminum bag, which is then sealed. For packaging type 2 and packaging type 3, a desiccant can be interposed (e.g., dispersed) between the two plastic layers (e.g., between the transparent and opaque polymeric bags).
Exemplary packaging for the storage system of the present invention can include packaging type 1, wherein temozolomide is packed and sealed in a transparent polyethylene bag. Exemplary packaging for the storage system of the present invention also can include packaging type 2, wherein temozolomide is packed and sealed in a transparent polyethylene bag, which is inserted into an opaque (e.g., black) polyethylene bag, which is then sealed, wherein the packaging is sealed effectively to prevent penetration of humidity and/or oxygen. Exemplary packaging for the storage system of the present invention also can include packaging type 3, wherein temozolomide is packed and sealed in a transparent polyethylene bag, which is packed in an opaque (e.g., black) polyethylene bag, which is then sealed and, in turn, packed and sealed in a laminated aluminum bag, which is then sealed. In packaging type 2 and in packaging type 3, a desiccant optionally can be interposed (e.g., dispersed) between the two polymeric bags/layers. In accordance with the present invention, each packaging, e.g., packaging type 1, type 2, and/or type 3 as described herein, can be packed under an inert atmosphere (e.g., under a nitrogen atmosphere) or in ambient air. In a preferred embodiment, the storage system of the present invention includes a type 3 packaging with a silica gel desiccant, wherein the packaging is optionally packed and sealed under a nitrogen atmosphere. An exemplary type 3 packaging is described in Example 2, which describes a type 3 packaging containing a silica gel desiccant, optionally under nitrogen atmosphere, which is effective in maintaining the temozolomide white color for long storage periods. […]

[3] = Effect of relative humidity on temozolomide stability, visual colour test in open glass vessel (Example 4)
Procedure: Three samples of temozolomide were stored in an open glass vessel at different relative humidity (RH) conditions for storage periods of up to 3 weeks, after which time the color changes were evaluated.

| Structure (SMILES) | Initial purity, % by HPLC [1] [%] | Purity, % by HPLC after 1 month of storage ([1]; type 3 packaging) [%] | Purity, % by HPLC after 2 months of storage ([1]; type 3 packaging) [%] | Purity, % by HPLC after 6 month of storage ([1]; type 3 packaging) [%] | Rate of decomposition on storage ([1]; type 3 packaging, wet sample (water about 1.8%) vs dry samples 3417 and 3034 (water less than 0.1%, KF)) | Color ([2]; Type 1 at ambient air, storage period 6 weeks, warehouse conditions, initially white) | Color ([2]; Type 3 - the inner bag of entry 2 was left out (sealed) for two more weeks, 6 weeks) | Color ([2]; Type 3 at ambient air containing a desiccant in the inner packaging, 4 weeks, warehouse conditions) | Color ([2]; Type 3 at ambient air containing a desiccant in the inner packaging, 10 weeks, warehouse conditions) | Color ([2]; Type 3 under nitrogen containing a desiccant in the inner packaging, 6 weeks, warehouse conditions) | Color ([2]; Type 3 under nitrogen without desiccant in the inner packaging, 8 weeks, warehouse conditions) | Result of visual test ([3]; RH 20%, 3 weeks) | Result of visual test ([3]; RH 80%, 4 days) |
| --- | --- | --- | --- | --- | --- | --- | --- | --- | --- | --- | --- | --- | --- |
| Cn1nnc2c(C(N)=O)ncn2c1=O [Sample 519, temozolomide] | 97.9 | 97.3 | 97.3 | 96.2 | appeared to decompose at a faster rate than the dry samples | – | – | – | – | – | – | – | – |
| Cn1nnc2c(C(N)=O)ncn2c1=O [Sample 3034, temozolomide] | 99.8 | 99.7 | 99.8 | 99.8 | – | – | – | – | – | – | – | – | – |
| Cn1nnc2c(C(N)=O)ncn2c1=O [Sample 3417, temozolomide] | 99.7 | 99.8 | 99.9 | 99.7 | – | – | – | – | – | – | – | – | – |
| Cn1nnc2c(C(N)=O)ncn2c1=O [temozolomide, 8-carbamoyl-3-methyl-imidazo[5,1-d]-1,2,3,5-tetrazin-4(3H)-one] | – | – | – | – | – | pinkish | pinkish | white | white | white | pinkish | White | pink color |
